Biological target: T1, human recombinant P2X7 receptor (Homo sapiens, UniProt Q99572)
T1 construct: expressed in transfected cells
T1 sequence (Q99572 1-595): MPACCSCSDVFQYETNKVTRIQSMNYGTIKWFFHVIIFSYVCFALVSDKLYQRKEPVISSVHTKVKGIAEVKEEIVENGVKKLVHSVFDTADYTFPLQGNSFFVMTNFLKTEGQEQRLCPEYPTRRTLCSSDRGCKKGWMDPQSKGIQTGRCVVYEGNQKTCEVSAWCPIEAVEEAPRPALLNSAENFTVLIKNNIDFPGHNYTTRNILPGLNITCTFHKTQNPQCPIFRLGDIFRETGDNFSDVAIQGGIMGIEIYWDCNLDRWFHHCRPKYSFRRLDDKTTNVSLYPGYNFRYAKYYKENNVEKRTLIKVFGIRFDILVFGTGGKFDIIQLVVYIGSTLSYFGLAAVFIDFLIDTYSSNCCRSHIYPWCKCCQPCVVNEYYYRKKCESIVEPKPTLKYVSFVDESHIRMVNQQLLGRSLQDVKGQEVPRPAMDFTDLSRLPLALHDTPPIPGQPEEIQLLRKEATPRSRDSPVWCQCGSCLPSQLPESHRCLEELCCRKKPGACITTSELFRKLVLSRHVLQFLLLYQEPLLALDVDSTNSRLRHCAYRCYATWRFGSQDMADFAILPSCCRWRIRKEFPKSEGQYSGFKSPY
Assay: YO-PRO assay (YO-PRO-1 uptake) in HEK cells stably expressing P2X7
Type: cell-based
Details: HEK-293 cells expressing human recombinant P2X7 receptor; ATP 250 μM, 90 minutes; YO-PRO-1 fluorescence (FLIPR tetra); read-out: IC50 (antagonistic activity with respect to the P2X7 receptor)
How it was run: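 Antagonist serially diluted (duplicates) on P2X7-expressing HEK cells in buffer with 0.5 μM YO-PRO-1; dye uptake followed on FLIPR Tetra over four time points. IC50 from maximum fluorescence intensity versus compound concentration.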

- IC50: 199 nM
Structure (SMILES): Cc1ccc(N(C)c2cc[nH]c(=O)n2)cc1C(=O)NCC1(O)CCCCC1 [Example 155, N-(1-Hydroxy-cyclohexylmethyl)-2-methyl-5-[methyl-(2-oxo-1,2-dihydro-pyrimidin-4-yl)-amino]-benzamide]

Source: US20140073651A1, “BENZAMIDE DERIVATIVES AS P2X7 RECEPTOR ANTAGONISTS” (Actelion Pharmaceuticals Ltd., priority 2011, published 2014)
